Laboratory results as given in US5686486A, “4-hydroxy-benzopyran-2-ones and 4-hydroxy-cycloalkyl[b]pyran-2-ones useful to treat retroviral infections” (priority 1995, dated 1997).
Counter-ions that a name gives are not always drawn. Like-named read-outs stand apart in the source and are kept apart here.

Target: HIV-1 protease (Human immunodeficiency virus type 1 group M subtype B, UniProt P04585)
Experiment: biochemical
Conditions: for inhibition at 1 µM: read-out: HIV-1 Protease % Inhib, dose 1.000 uM; for inhibition at 100 µM: read-out: HIV-1 Protease % Inhib, dose 100.000 uM; for IC50: HIV-1 Protease IC50
Method: The HIV protease screening assay is based on fluorescently labeled substrate which can be resolved from nonlabeled cleavage product using special beads coated with streptavidin. The substrate is biotinylated at the amino terminal arginine and fluorescently labeled with fluorescein isothiocynate (FITC) at the carboxyl terminal lysine. This assay has been employed to detect novel, nonpeptidic inhibitors of HIV-1 protease. Substrate (20 μl of 0.2 μM), sample (10 μl of desired concentration), and enzyme (10 μl of 0.1 μM) are added to a 96 well pandex plate. The assay is run in 0.1M sodium acetate buffer at pH 5.5 in the presence of 1.0M sodium chloride and 0.05% NP-40 with incubated in the dark for one hour at room temperature. Strepavidin coated polystyrene beads {40 μl of 0.1% (w/v)} are added and the plate is incubated in the dark for an additional half hour. The labeled cleavage product is separated from the unreacted substrate via filtration and is read on the Idexx screen machine. The data are analyzed by appropriate computer algorithms to ascertain percent inhibition values.

[1] = dose 1.100 uM, read-out: HIV-1 Protease % Inhib
[2] = dose 3.300 uM, read-out: HIV-1 Protease % Inhib
[3] = dose 10.000 uM, read-out: HIV-1 Protease % Inhib
[4] = dose 30.000 uM, read-out: HIV-1 Protease % Inhib
[5] = read-out: HIV-1 Protease % Inhib, dose 10.000 uM
[6] = read-out: HIV-1 Protease % Inhib, dose 0.123 uM
[7] = read-out: HIV-1 Protease % Inhib, dose 0.370 uM
[8] = read-out: HIV-1 Protease % Inhib, dose 1.100 uM
[9] = read-out: HIV-1 Protease % Inhib, dose 3.300 uM
[10] = read-out: HIV-1 Protease % Inhib, dose 30.000 uM
[11] = dose 0.370 uM, read-out: HIV-1 Protease % Inhib

Row | inhibition at 1.1 µM [1] [%] | inhibition at 3.3 µM [2] [%] | inhibition at 10 µM [3] [%] | inhibition at 30 µM [4] [%] | Compound | inhibition at 1 µM [%] | inhibition at 10 µM [5] [%] | inhibition at 100 µM [%] | also measured
1 | 17.4 | 54.5 | 77.8 | 86.8 | O=c1oc2c(c(O)c1C(c1cccc(NC(=S)Cc3ccccc3)c1)C1CC1)CCCCCC2 (stereo not drawn) [Example 368, Benzeneethanethioamide, N-[3-[cyclopropyl(5,6,7,8,9,10-hexahydro-4-hydroxy-2-oxo-2H-cycloocta[b]pyran-3-yl)methyl]phenyl]-] | – | – | – | –
2 | – | – | – | – | CCCC(Cc1ccccc1)c1c(O)c2ccccc2oc1=O (stereo not drawn) [Example 147, 3-(1 -Benzyl-butyl)-4-hydroxy-chromen-2-one] | 34.7 | 86.3 | 96.5 | –
3 | – | – | – | – | O=c1oc2c(c(O)c1C(c1cccc(NS(=O)(=O)c3cccc(Cl)c3Cl)c1)C1CC1)CCCCCC2 (stereo not drawn) [Example 285, 2,3-Dichloro-N-[3-[cyclopropyl(5,6,7,8,9,10-hexahydro4-hydroxy-2-oxo-2H-cycloocta[b]pyran-3-yl)methyl]phenyl]-benzenesulfonamide] | – | 97.7 | – | inhibition at 0.123 µM [6]: 37.6%; inhibition at 0.37 µM [7]: 73.8%; inhibition at 1.1 µM [8]: 84.6%; inhibition at 3.3 µM [9]: 95%; inhibition at 30 µM [10]: 91.8%
4 | – | – | – | – | O=c1oc2c(c(O)c1C(c1cccc(NS(=O)(=O)c3cccs3)c1)C1CC1)CCCCCC2 (stereo not drawn) [Example 323, N-[3-[Cyclopropyl(5,6,7,8,9,10-hexahydro-4-hydroxy-2-oxo-2H-cycloocta[b]pyran-3-yl)methyl]phenyl]-2-thiophenesulfonamide] | – | 118 | – | inhibition at 0.123 µM [6]: 62.8%; inhibition at 0.37 µM [7]: 91.8%; inhibition at 1.1 µM [8]: 100%; inhibition at 3.3 µM [9]: 104%; inhibition at 30 µM [10]: 112%
5 | 29.2 | 64.6 | 88.7 | 101 | O=c1oc2c(c(O)c1C(c1ccccc1)C1CC1)CCCCC2CCC1OCCO1 (stereo not drawn) [Example 186, 3-(Cyclopropylphenylmethyl)-9-[2-(1,3-dioxolan-2-yl)ethyl]-6,7,8,9-tetrahydro-4-hydroxy-cyclohepta[b]pyran-2(5H)-one] | – | – | – | –
6 | – | – | – | – | O=c1oc2c(c(O)c1C(c1cccc(NS(=O)(=O)c3ccc([N+](=O)[O-])cc3)c1)C1CC1)CCCCCC2 (stereo not drawn) [Example 273, N-[3-[Cyclopropyl(5,6,7,8,9,10-hexahydro-4-hydroxy-4-oxo-2H-cycloocta[b]pyran-3-yl)methyl]phenyl]4-nitro-benzenesulfonamide] | – | 102 | – | inhibition at 0.123 µM [6]: 68.4%; inhibition at 0.37 µM [7]: 92.3%; inhibition at 1.1 µM [8]: 95.9%; inhibition at 3.3 µM [9]: 98.2%; inhibition at 30 µM [10]: 108%
7 | 13.8 | 36 | 65.3 | 78.9 | O=c1oc2c(c(O)c1C(c1cccc(NCc3ccccc3)c1)C1CC1)CCCCCC2 (stereo not drawn) [Example 242, 3-[Cyclopropyl-[3-[(phenylmethyl)amino]phenyl]methyl]-5,6,7,8,9,10-hexahydro-4-hydroxy-2H-cycloocta[b]pyran-2-one] | – | – | – | –
8 | – | – | – | – | CC(c1cccc(C(=O)NCc2nc3ccccc3[nH]2)c1)c1c(O)c2ccccc2oc1=O (stereo not drawn) [Example 26, Coumarin, 3-[1-[3-[[[(2-benzimidazo131)methyl]amino]carbonyl]phenyl]ethyl]-4-hydroxy] | < 10 | 53.6 | 95 | IC50: 20.3 µM; HIV-1 Protease % Inhib (dose 100.000 uM): 80%
9 | 31.9 | 73.5 | 97.8 | 110 | COCCOCCC1CCCCCc2c1oc(=O)c(C(c1ccccc1)C1CC1)c2O (stereo not drawn) [Example 172, 3-(Cyclopropylphenylmethyl)-5,6,7,8,9,10-hexahydro-4-hydroxy-10-[2-(2-methoxyethoxy)ethyl]-2H-cycloocta[b]pyran-2-one] | – | – | – | –
10 | – | – | – | – | CCC(c1cccc(NC(=O)CC[C@H](N)C(=O)O)c1)c1c(O)c2ccccc2oc1=O (stereo partly drawn) [Example 52, L-Glutamine, N-[3-[1-(4-hydroxy-2-oxo-2H-1-benzopyran-3-yl)propyl]phenyl]-, mono(trifluoroacetate) (salt)] | 26.8 | 81.5 | 120 | IC50: 3.1 µM
11 | 11.8 | 32.7 | 63.2 | 81.8 | CCCCCCCCCCCCS(=O)(=O)Nc1cccc(C(c2c(O)c3c(oc2=O)CCCCCC3)C2CC2)c1 (stereo not drawn) [Example 344, N-[3-[Cyclopropyl(5,6,7,8,9,10-hexahydro-4-hydroxy-2-oxo-2H-cycloocta[b]pyran-3-yl)methyl]phenyl]-1-dodecanesulfonamide] | – | – | – | –
12 | – | – | – | – | CCC(c1cccc(NC(=O)CC(C)(C)N)c1)c1c(O)c2ccccc2oc1=O (stereo not drawn) [Example 48, Coumarin, 3-[1-[3-[(3-amino-3-methyl-1-oxobutyl)amino]phenyl]propyl]-4-hydroxy-, trifluoroacetate (salt)] | < 10 | < 10 | 43.3 | –
13 | – | – | – | – | CC(C)C(c1ccc(Br)cc1)c1c(O)c2ccccc2oc1=O (stereo not drawn) [Example 12, 3-(1-(4-Bromophenyl)-2-methylpropyl)-4-hydroxycoumarin] | – | – | 87.4 | IC50: 12.1 µM; inhibition at 0.098 µM (read-out: HIV-1 Protease % Inhib, dose 0.098 uM): < 10%; inhibition at 0.196 µM (read-out: HIV-1 Protease % Inhib, dose 0.196 uM): < 10%; inhibition at 0.39 µM (read-out: HIV-1 Protease % Inhib, dose 0.390 uM): < 10%; inhibition at 0.78 µM (read-out: HIV-1 Protease % Inhib, dose 0.780 uM): 14%; inhibition at 1.56 µM (read-out: HIV-1 Protease % Inhib, dose 1.560 uM): 17.1%; inhibition at 3.13 µM (read-out: HIV-1 Protease % Inhib, dose 3.130 uM): 25.4%; inhibition at 6.25 µM (read-out: HIV-1 Protease % Inhib, dose 6.250 uM): 31.9%; inhibition at 12.5 µM (read-out: HIV-1 Protease % Inhib, dose 12.500 uM): 53.8%; inhibition at 25 µM (read-out: HIV-1 Protease % Inhib, dose 25.000 uM): 66.5%; inhibition at 50 µM (read-out: HIV-1 Protease % Inhib, dose 50.000 uM): 74.7%; inhibition at 200 µM (read-out: HIV-1 Protease % Inhib, dose 200.000 uM): 87%
14 | 42.3 | 64.2 | 85.1 | 80.2 | CN(C)c1cccc2c(S(=O)(=O)Nc3cccc(C(c4c(O)c5c(oc4=O)CCCCCC5)C4CC4)c3)cccc12 (stereo not drawn) [Example 283, N-[3-[Cyclopropyl(5,6,7,8,9,10-hexahydro4-hydroxy-2-oxo-2H-cycloocta[b]pyran-3-yl)methyl]phenyl]-5-(dimethylamino)-1-naphthalenesulfonamide] | – | – | – | inhibition at 0.37 µM [11]: 10.6%
15 | – | – | – | – | CCC(c1ccccc1)c1c(O)c2c(oc1=O)CCCCC2 (stereo not drawn) [Example 110, 6,7,8,9-Tetrahydro-4-hydroxy-3-(1-phenylpropyl)-cyclohepta[b]pyran-2(5H)-one] | 16.9 | 73.8 | 99.9 | –
16 | – | – | – | – | O=c1oc2ccccc2c(O)c1C1CCCc2ccccc21 (stereo not drawn) [Example 34, 4-hydroxy-3-[1-(1,2,3,4-tetrahydro)naphthyl]-coumarin] | < 10 | 50.3 | 91.1 | IC50: 3.6 µM
17 | – | 32.5 | 59.5 | 69.5 | O=C(Nc1cccc(C(c2c(O)c3c(oc2=O)CCCCCC3)C2CC2)c1)c1cccc2ccccc12 (stereo not drawn) [Example 212, 1-Naphthalenecarboxamide, N-[3-[cyclopropyl(5,6,7,8,9,10-hexahydro4-hydroxy-2-oxo-2H-cyclooct[b]pyran-3-yl)methyl]phenyl]-] | – | – | – | –

Row | Compound | inhibition at 1.1 µM [1] [%] | inhibition at 3.3 µM [2] [%] | inhibition at 10 µM [3] [%] | inhibition at 30 µM [4] [%] | inhibition at 1 µM [%] | inhibition at 10 µM [5] [%] | inhibition at 100 µM [%] | also measured
18 | O=c1oc2c(c(O)c1C(c1cccc(NS(=O)(=O)CCCN3CCOCC3)c1)C1CC1)CCCCCC2 (stereo not drawn) [Example 365B (Second Title Compound), N-[3-[Cyclopropyl(5,6,7,8,9,10-hexahydro-4-hydroxy-2-oxo-2H-cycloocta[b]pyran-3-yl)methyl]phenyl]-4-morpholinepropanesulfonamide] | 94 | 87.3 | 92.6 | 89.1 | – | – | – | inhibition at 0.123 µM (dose 0.123 uM, read-out: HIV-1 Protease % Inhib): 33.2%; inhibition at 0.37 µM [11]: 68.2%
